In patent US20150159131A1, “METHODS AND COMPOSITIONS FOR REGULATING MUSASHI FUNCTION” (Board of Trustees of the University of Arkansas, priority 2011, published 2015):

Columns and labels:
Format in all cases: cell-based, Xenopus
Mos mRNA = assay: Polyadenylation assay of endogenous Mos mRNA (RNA ligation-coupled PCR)
From the text: The increase in PCR product length is specifically due to extension of the poly[A] tail. The primer used to analyze endogenous Xenopus Musashi1 mRNA polyadenylation was [NT] ID NO:24).

[1] = test system: Musashi1 S322 phosphorylation; assay: Western blot for S322-phosphorylated Musashi1 in oocyte lysates
Description: Xenopus oocytes were isolated and cultured. Oocytes were induced to mature with 2 μg/ml progesterone. The rate of germinal vesicle breakdown (GVBD) was scored morphologically by observing the appearance of a white spot on the animal pole. Because oocytes from different frogs mature at different rates in response to progesterone, the culture times were standardized between experiments to the time taken for 50% of oocytes to undergo GVBD. Where indicated, oocytes were pre-treated with 50 μM MEK inhibitor, UO126 or DMSO vehicle for 30 minutes.
Antisera for phosphorylation specific Musashi1 S322 were generated by immunizing rabbits with the peptide VSSYISAAS(phospho)PAPSTGF (SEQ ID NO:26). The antibodies were affinity purified through a peptide-affinity column and used at 1:1000. Abcam antibodies to Musashi1 were used at 1:1000. Sigma Tubulin antibodies were used at 1:20,000. The phospho-specific Cdc2 antibody was used at 1:1000 and detects the inhibitory Tyr15 phosphorylation. The phospho-specific MAP kinase antibody (Cell Signaling) was used at 1:1000 and detects the activating phosphorylations at Thr202/Tyr204. The GST antibody (Santa Cruz) was used at 1:1000. The Xenopus Ringo antibody was used at 1:1000.
Oocytes were lysed in NP40 lysis buffer containing sodium vanadate and a protease inhibitor cocktail. Where indicated, a portion of the lysate was transferred to STAT-60 for RNA extraction. […]

Musashi1 protein = assay: Western blot for endogenous Musashi1 protein accumulation at GVBD50; conditions: at GVBD50, normalized to tubulin, 3 experiments, p<0.01
Description: Oocytes were lysed in NP40 lysis buffer containing sodium vanadate and a protease inhibitor cocktail. Where indicated, a portion of the lysate was transferred to STAT-60 for RNA extraction. Protein lysates were then spun, clarified and transferred immediately to 1× sample buffer. The lysates were run on a 10% Nupage gel and transferred to a 0.2 μm-pore-size nitrocellulose filter. The membrane was blocked with 1% bovine serum albumin in TBST for 60 min at room temperature. Following incubation with primary antibody, filters were incubated with horseradish peroxidase conjugated secondary antibody using enhanced chemiluminescence in a Fluorchem 8000 Advanced Imager. To determine if Musashi is regulated by progesterone, Musashi levels were detected in progesterone stimulated oocytes using methods described in Example 1. […] Lysates from oocytes treated with or without progesterone were analyzed by western blot for endogenous Musashi1 protein accumulation at GVBD50. Quantifications of fold changes in Musashi1 levels (as indicated below western) were normalized to tubulin from the same sample, and levels in immature oocytes (Imm) arbitrarily set to 1.0. The bar graph of FIG. 1B represents data from 3 independent experiments with S.E.M. (Student's t-test; p<0.01).

| Compound | time at which Mos mRNA polyadenylation initiates after progesterone stimulation (Mos mRNA; oocytes expressing GST-Musashi) | maximum progesterone-induced change in phospho-Musashi1 levels normalized to tubulin, relative to immature oocytes ([1]; uninjected oocytes, endogenous Musashi1, n=4, p<0.05) | Musashi protein levels in response to progesterone stimulation (Musashi1 protein) | effect on initial polyadenylation or translation of the Mos mRNA (Mos mRNA; oocytes treated with MAP kinase signaling inhibitor) | effect on progesterone-stimulated Musashi S322 phosphorylation ([1]; oocytes expressing GST-Musashi1, progesterone stimulated) |
| --- | --- | --- | --- | --- | --- |
| CC(=O)[C@H]1CC[C@H]2[C@@H]3CCC4=CC(=O)CC[C@]4(C)[C@H]3CC[C@]12C [progesterone] | approximately 3 hours | 1.25+/−0.11 fold | increase |  |  |
| N#CC(=C(/N)Sc1ccccc1N)/C(C#N)=C(/N)Sc1ccccc1N [UO126] |  |  |  | does not prevent | significant attenuation |
